Test results from patent publication US7297676B2, “Thymosin alpha 1 peptide/polymer conjugates” (SciClone Pharmaceuticals, Inc., priority 2001, dated 2007).
Ends that are not written are not given here.

Experiments:
[1] = Adverse events observed in the rat studies; type: in vivo
Procedure: In the following examples, which are not intended to be limiting, a continuous infusion of TA1 was evaluated in a cancer therapy model with the use of surgically implanted osmotic minipumps, which deliver fluids at a constant flow rate for 5 days. Rats were given 5-fluorouracil (5-FU) to cause immune suppression, and then treated with injected or infused TA1 8 days later (the nadir of white cell count after 5-FU). Treatment groups, 8 rats each, were: control (minipumps with saline); low dose TA1 (0.2 mg/Kg sc injection; empty minipumps); high dose TA1 (3.5 mg/Kg sc injection; empty minipumps); and high dose infused TA1 (3.5 mg/Kg infused by minipumps). Immune parameters were determined at baseline and 8 days after 5-FU treatment (day 1 of TA1 treatment), and also at 5, 12, 20, and 27 days after TA1 treatment.
8 days after 5-FU treatment, rats were randomly assigned to one of the following groups (n=15): • Control (saline in minipump) • High dose TA1, injected s.c. at 3.5 mg/Kg (with empty minipumps) • Continuous infusion TA1, provided by minipump at 3.5 mg/Kg/5 days

[2] = cited from earlier work
[3] = subcutaneously injected; cited from earlier work
[4] = system: NK activity; assay: Example 1: return of NK activity in 5-FU immune-suppressed rats; type: in vivo, rat; settings: one injection, molar equivalent of 200 ug/kg thymosin, compared with Thymosin alpha 1 200 ug/kg
Procedure: (§1) Rats were injected with 5-fluorouracil (5-FU) to cause immune suppression, then were treated with an injection of thymosin alpha 1 (200 ug/kg) or pegylated thymosin alpha 1 (20,000 MW PEG-Thymosin alpha 1) (the equivalent on a molar basis of 200 ug/kg of thymosin molecules) to determine the effect on immune parameters.

[5] = system: activated T cells, CD25+; assay: Example 1: return of activated T cells in 5-FU immune-suppressed rats; type: in vivo, rat; settings: one injection, molar equivalent of 200 ug/kg thymosin, compared with Thymosin alpha 1 200 ug/kg
Procedure: as §1

## Ac-SDAAVDTSSEITTKDLKEKKEVVEEAEN-OH [TA1, Thymosin alpha 1]
[1]; one rat given both injection 3.5 mg/Kg and continuous infusion of another 3.5 mg/Kg
  adverse events: no obvious adverse events
[1]; rats, doses 15 times higher than usual (in one animal 30 times higher)
  adverse events: No adverse events were observed
[2]
  dose found to be safe for humans: ≤ 16 mg/kg body weight/day
[3]
  plasma half-life: about 2 hours

## PEG-Thymosin alpha 1: 20,000 molecular weight PEG conjugated to the N-terminal end of TA1 ({PEG 20 kDa}-SDAAVDTSSEITTKDLKEKKEVVEEAEN; ends and bridges not checked; UniProt P06454 2-29, looked up)
[4]
  return of NK activity (after depression by 5-FU): greater
[5]
  return of activated T cells, CD25+: greater
